Results: PubChem BioAssay AID1259407 (Chemical Carcinogenesis Research Information System (CCRIS), 2018)
Activity calls are given as the source filed them. No rule for the calls is given here.

Tested on: CCRIS mutagenicity, Ames/micronucleus/aberration tests
Experiment: CCRIS mutagenicity studies
[1] = Test System: AMES SALMONELLA TYPHIMURIUM, Strain/Indicator: TA98, Metabolic Activation: NONE, Method: STANDARD PLATE
[2] = Test System: AMES SALMONELLA TYPHIMURIUM, Strain/Indicator: TA98, Metabolic Activation: RAT, LIVER, S-9, AROCLOR 1254, Method: STANDARD PLATE
[3] = Test System: AMES SALMONELLA TYPHIMURIUM, Strain/Indicator: TA100, Metabolic Activation: NONE, Method: STANDARD PLATE
[4] = Test System: AMES SALMONELLA TYPHIMURIUM, Strain/Indicator: TA100, Metabolic Activation: RAT, LIVER, S-9, AROCLOR 1254, Method: STANDARD PLATE
[5] = Test System: AMES SALMONELLA TYPHIMURIUM, Strain/Indicator: TA1535, Metabolic Activation: NONE, Method: STANDARD PLATE
[6] = Test System: AMES SALMONELLA TYPHIMURIUM, Strain/Indicator: TA1535, Metabolic Activation: RAT, LIVER, S-9, AROCLOR 1254, Method: STANDARD PLATE
[7] = Test System: AMES SALMONELLA TYPHIMURIUM, Strain/Indicator: TA1537, Metabolic Activation: NONE, Method: STANDARD PLATE
[8] = Test System: AMES SALMONELLA TYPHIMURIUM, Strain/Indicator: TA1537, Metabolic Activation: RAT, LIVER, S-9, AROCLOR 1254, Method: STANDARD PLATE
[9] = Test System: AMES SALMONELLA TYPHIMURIUM, Strain/Indicator: TA1538, Metabolic Activation: NONE, Method: STANDARD PLATE
[10] = Test System: AMES SALMONELLA TYPHIMURIUM, Strain/Indicator: TA1538, Metabolic Activation: RAT, LIVER, S-9, AROCLOR 1254, Method: STANDARD PLATE

## ON=C1CCCCC1
Test System: AMES SALMONELLA TYPHIMURIUM, Strain/Indicator: TA97, Metabolic Activation: HAMSTER, LIVER, S-9, AROCLOR 1254 (30%), Method: PREINCUBATION
  mutagenic call: inactive; negative
Test System: AMES SALMONELLA TYPHIMURIUM, Strain/Indicator: TA97, Metabolic Activation: NONE, Method: PREINCUBATION
  mutagenic call: inactive; negative
Test System: AMES SALMONELLA TYPHIMURIUM, Strain/Indicator: TA97, Metabolic Activation: RAT, LIVER, S-9, AROCLOR 1254 (30%), Method: PREINCUBATION
  mutagenic call: inactive; negative
Test System: AMES SALMONELLA TYPHIMURIUM, Strain/Indicator: TA98, Metabolic Activation: HAMSTER, LIVER, S-9, AROCLOR 1254 (30%), Method: PREINCUBATION
  mutagenic call: inactive; negative
Test System: AMES SALMONELLA TYPHIMURIUM, Strain/Indicator: TA98, Metabolic Activation: HAMSTER, LIVER, S-9, AROCLOR 1254, Method: STANDARD PLATE
  mutagenic call: inactive; negative
Test System: AMES SALMONELLA TYPHIMURIUM, Strain/Indicator: TA98, Metabolic Activation: NONE, Method: PREINCUBATION
  mutagenic call: inactive; negative
[1]
  mutagenic call: inactive; negative
Test System: AMES SALMONELLA TYPHIMURIUM, Strain/Indicator: TA98, Metabolic Activation: RAT, LIVER, S-9, AROCLOR 1254 (30%), Method: PREINCUBATION
  mutagenic call: inactive; negative
[2]
  mutagenic call: inactive; negative
Test System: AMES SALMONELLA TYPHIMURIUM, Strain/Indicator: TA100, Metabolic Activation: HAMSTER LIVER S-9, AROCLOR 1254, Method: PREINCUBATION
  mutagenic call: inactive; negative
Test System: AMES SALMONELLA TYPHIMURIUM, Strain/Indicator: TA100, Metabolic Activation: HAMSTER, LIVER, S-9, AROCLOR 1254 (30%), Method: PREINCUBATION
  mutagenic call: inactive; negative
Test System: AMES SALMONELLA TYPHIMURIUM, Strain/Indicator: TA100, Metabolic Activation: HAMSTER, LIVER, S-9, AROCLOR 1254, Method: STANDARD PLATE
  mutagenic call: inactive; negative
Test System: AMES SALMONELLA TYPHIMURIUM, Strain/Indicator: TA100, Metabolic Activation: NONE, Method: PREINCUBATION
  mutagenic call: inactive; negative
[3]
  mutagenic call: inactive; negative
Test System: AMES SALMONELLA TYPHIMURIUM, Strain/Indicator: TA100, Metabolic Activation: RAT, LIVER, S-9, AROCLOR 1254 (30%), Method: PREINCUBATION
  mutagenic call: inactive; negative
[4]
  mutagenic call: inactive; negative
Test System: AMES SALMONELLA TYPHIMURIUM, Strain/Indicator: TA1535, Metabolic Activation: HAMSTER LIVER S-9, AROCLOR 1254, Method: PREINCUBATION
  mutagenic call: active; positive
Test System: AMES SALMONELLA TYPHIMURIUM, Strain/Indicator: TA1535, Metabolic Activation: HAMSTER, LIVER, S-9, AROCLOR 1254 (5,10 OR 30%), Method: PREINCUBATION
  mutagenic call: active; positive
Test System: AMES SALMONELLA TYPHIMURIUM, Strain/Indicator: TA1535, Metabolic Activation: HAMSTER, LIVER, S-9, AROCLOR 1254, Method: STANDARD PLATE
  mutagenic call: inactive; negative
[5]
  mutagenic call: inactive; negative
Test System: AMES SALMONELLA TYPHIMURIUM, Strain/Indicator: TA1535, Metabolic Activation: RAT, LIVER, S-9, AROCLOR 1254 (30%), Method: PREINCUBATION
  mutagenic call: inactive; negative
[6]
  mutagenic call: inactive; negative
Test System: AMES SALMONELLA TYPHIMURIUM, Strain/Indicator: TA1537, Metabolic Activation: HAMSTER, LIVER, S-9, AROCLOR 1254, Method: STANDARD PLATE
  mutagenic call: inactive; negative
[7]
  mutagenic call: inactive; negative
[8]
  mutagenic call: inactive; negative
Test System: AMES SALMONELLA TYPHIMURIUM, Strain/Indicator: TA1538, Metabolic Activation: HAMSTER, LIVER, S-9, AROCLOR 1254, Method: STANDARD PLATE
  mutagenic call: inactive; negative
[9]
  mutagenic call: inactive; negative
[10]
  mutagenic call: inactive; negative
Test System: MOUSE LYMPHOMA, Strain/Indicator: L5178Y (TK+/TK-), Metabolic Activation: NONE, Method: SUSPENSION/PLATE
  mutagenic call: active; positive. reevaluation of results: positive
Test System: MOUSE LYMPHOMA, Strain/Indicator: L5178Y (TK+/TK-), Metabolic Activation: RAT, LIVER, S-9, AROCLOR 1254, Method: SUSPENSION/PLATE
  mutagenic call: inactive; negative. reevaluation of results: negative

## O=[N+]([O-])c1ccc2ccc3cccc4c(O)cc1c2c34
[1]
  mutagenic call: active; positive
[2]
  mutagenic call: active; positive

## CNC(=O)Oc1cccc2c1OC(C)(C)C2
End Point: CHROMOSOMAL ABERRATIONS, Test System: BONE MARROW, Species: MOUSE, Strain/Sex: SWISS/MALE, Route: GAVAGE
  mutagenic call: active; positive (structural changes)
End Point: IN VIVO MICRONUCLEUS, Test System: BONE MARROW POLYCHROMATIC ERYTHROCYTES, Species: MOUSE, Strain/Sex: KM/MALE, FEMALE, Route: IP INJECTION
  mutagenic call: inactive; negative
Test System: AMES SALMONELLA TYPHIMURIUM, Strain/Indicator: TA97A, Metabolic Activation: NONE, Method: STANDARD PLATE
  mutagenic call: inactive; negative
[1]
  mutagenic call: inactive; negative
[3]
  mutagenic call: inactive; negative
Test System: AMES SALMONELLA TYPHIMURIUM, Strain/Indicator: TA102, Metabolic Activation: NONE, Method: STANDARD PLATE
  mutagenic call: inactive; negative
Test System: AMES SALMONELLA TYPHIMURIUM, Strain/Indicator: TA104, Metabolic Activation: NONE, Method: STANDARD PLATE
  mutagenic call: inactive; negative
[5]
  mutagenic call: inactive; negative

## CN(C)c1ccc([C@H]2C[C@@]3(C)[C@@H](CC[C@@]3(O)/C=C\CO)[C@@H]3CCC4=CC(=O)CCC4=C32)cc1
End Point: IN VITRO CHROMOSOMAL ABERRATIONS, Test System: HUMAN PERIPHERAL LYMPHOCYTES, Metabolic Activation: NONE
  mutagenic call: inactive; negative
End Point: IN VITRO CHROMOSOMAL ABERRATIONS, Test System: HUMAN PERIPHERAL LYMPHOCYTES, Metabolic Activation: RAT, LIVER, S-9, AROCLOR 1254
  mutagenic call: inactive; negative
[1]
  mutagenic call: inactive; negative
[2]
  mutagenic call: inactive; negative
[3]
  mutagenic call: inactive; negative
[4]
  mutagenic call: inactive; negative
[5]
  mutagenic call: inactive; negative
[6]
  mutagenic call: inactive; negative
[7]
  mutagenic call: inactive; negative
[8]
  mutagenic call: inactive; negative
[9]
  mutagenic call: inactive; negative
[10]
  mutagenic call: inactive; negative

## CCOP(=O)(OCC)Oc1cc(C)nc(C(C)C)n1
[1]
  mutagenic call: inactive; negative
Test System: AMES SALMONELLA TYPHIMURIUM, Strain/Indicator: TA98, Metabolic Activation: RAT, LIVER, S-9, Method: STANDARD PLATE
  mutagenic call: inactive; negative
[3]
  mutagenic call: active; positive
Test System: AMES SALMONELLA TYPHIMURIUM, Strain/Indicator: TA100, Metabolic Activation: RAT, LIVER, S-9, Method: STANDARD PLATE
  mutagenic call: inactive; negative
